According to patent US20180318291A1, “USE OF AMINOTHIAZOLE MYD88 SPECIFIC INHIBITOR TJM2010-5” (WUHAN INNAMUNE PHARMACEUTICAL INC. LTD., priority 2015, published 2018):

Experiments:
GVHD mice = assay: GVHD model in irradiated BALB/c mice; format: in vivo
Method: Construction of GVHD model: Apply myeloablativetotal body irradiation (TBI, 710cGy) (HI-ENERGY PRIMV S-M X-ray source) on female BALB/c (H-2d) mice, and inject the bone marrow cell of […] of C57BL/6(B6, H-2^b) mice into it within 2 hours, and inject the B6spleen cells of […] into some of these female BALB/c (H-2d) mice at some time.
Groups: GVHD mice are divided into 4 groups, where the first group is control group, and the 8 mice in the group are provided with no post operation treatment; the second group is provided with intragastric administration of TJM2010-5 of 50 mg/kg/day since the day of irradiation; the third group is the MR1 group, in which the 8 mice are provided with the treatment of MR1 of 10 mg/kg/time on day 0, 1, 2, 3, 7 and 14 after irradiation; the forth group is the combination treatment group (TJM2010-5+MR1), in which the 8 mice are treated with TJM2010-5 and MR1 by the method mentioned above.
In case TJM2010-5 is combined with MR1, it can reverse 100% of GVHD. However, other aminothiazole compounds have no or little such curative effect.

[1] = system: C57bl/6 mice lymphocytes with Bal b/c DC; assay: mixed lymphocyte culture, T cell proliferation after CpG stimulated DC activation; format: cell-based; conditions: 10, 20, 40 μM, third day, FIG. 8
Method: 1. Take the thigh bone of Bal b/c mice, separate the bone marrow cell and add the GMS-CSF and IL-4 cytokines to cultivate marrow-derived DC.
2. Cultivate them until the sixth day, and dissociate the cells to remove immature DC. Conduct centrifugation and suspend them with 1640 medium.
3. Add mitomycin (to let the final concentration up to 50 μg/ml), and conduct water bath at 37° C. for 15 min Wash in 1640 medium and count.
4. Take the spleen of C57bl/6 mice, separate splenic lymphocytes with separating medium of mice lymphocytes and count.
5. Take the splenic lymphocytes of C57bl/6 mice and label CFSE.
6. Mix DC derived from Bal b/c and C57bl/6 mice lymphocytes for the mixed lymphocyte culture. And the grouped as follows:
Control group: Add CPG other than TJM2010-5 in the process of mixed lymphocyte culture.
Experiment group 1: Add CPG and TJM2010-5 in the process of mixed lymphocyte culture, where, the added TJM2010-5 is 10 μM.
Experiment group 2: Add CPG and TJM2010-5 in the process of mixed lymphocyte culture, where, the added TJM2010-5 is 20 μM.
Experiment group 3: Add CPG and TJM2010-5 in the process of mixed lymphocyte culture, where, the added TJM2010-5 is 40 μM.
1. Cultivate them until the third day, collect cells and detect the proliferation of C57bl/6 mice lymphopoiesis with flow cytometer.

[2] = system: inflammatory factors (IL-1β, TNF-α, IL-6) in graft; assay: real time quantitative PCR of inflammatory factors in graft; format: in vivo, mice
Text: 1. Extract the total RNA from the receptor receiving antigen (homogenic, allogenic) stimulation by the TRIzol method;
2. Reversely transcribe them to cDNA by the two-step method of RT-PCR;
3. Make the standard curve to compare the measured relative level of IL-1β, TNF-α, IL-6.

C57bl/6 mice = assay: BLM (bleomycin) pulmonary inflammation model; format: in vivo
Method: 1. Animal grouping: C57bl/6(B6) NaCl (200 μl nasal drip) group, C57bl/6 (B6) BLM group and TJM2010-5BLM group (provide intraperitoneal injection of TJM2010-5 dissolved in 0.5% CMC of 150 mg/kg/d on day 0-3, 5, 7, 9, 11, 13, 15).
2. Construct pulmonary inflammation model with BLM (bleomycin) nasal drips: conduct airway anesthesia with 40 μl of ketaminexylazine, and administrate BLM sulfate by nasal dripping (300 μg or 15 mg/kg).
3. Collect cell and cytokines with bronchoalveolar lavage fluid (BAL): Cut open the trachea and insert the plastic sleeve; then lavage with 0.3 ml of PBS at 37° C., and withdraw the lavage fluid (the withdrawn fluid is more than 95%), and repeat the process for 10 times. The lavage fluid consists of two parts: one part is used for detection of cytokins (600 g, conduct centrifugation for 10 min, collect and store the supernatant at −80° C. for detection); the other part is used for cell counting (0.4 ml, including substratum, suspension), count at 4° C.
4. Detect cells and factors in tissue with pulmonary homogenate: After BAL, take and grind the whole lung, and conduct centrifugation to take supernatant, then, store it at −80 C° for detection of MPO.
5. Conduct activity detection of pulmonary MPO: Completely lavage the lung with saline passing through right heart, and take pulmonary tissue homogenate, then conduct centrifugation to take supernatant. After that, suspend and precipitate it with 1 ml of PBS (including 0.5% of HTAB, 5 mM of EDTA). Conduct centrifugation, add 50 μl of supernatant into tube (200 μl of PBS-HTAB-EDTA, 2 ml of HBSS, 100 μl of o-dianisidine dihydrochloride (1.25 mg/ml), 100 μl of H2O2 0.05%), and put it into vortex water tank at 37° C. for 15 min. Then, stop the reaction with 100 μl of NaN3 1%, and detect the MPO absorption value with 460 nm.
6. Conduct cell counting: Dye with MG-1L for 4 min, and dye with 95% of GS-500 for 8 min. Then, make smear to count cells.
7. Conduct factor detection: detect the level of IL-6 with ELISA.

mice with pyohemia = assay: pyohemia / septicopyemia lethal experiment (cecal ligation and puncture); format: in vivo; conditions: CLP; 250 mg/kg intragastric 4 times every 12 h; FIG. 15(b)
Method: Part two: Observe the effect of MyD88 inhibitor on mortality of mice with pyohemia. The mice will be randomly divided into: sham-operation group, model group, MyD88 inhibitor treatment group. Except for the mice in sham-operation group that only receive post-operative suture, the mice in pyohemia model group and MyD88 inhibitor treatment group are provided with the cecal ligation and puncture (CLP), to copy the pyohemia mice model. At 1 h after operation, apply intragastric administration of 0.5% CMC 200 μL or TJM2010-5 of 250 mg/kg (200 μL) for 4 times successively, and each time lasts for 12 h. After operation, observe the survival rate of mice in each group every 12 h, and for 72 h successively.

Structure (SMILES): O=C(CCN1CCN(Cc2ccccc2)CC1)Nc1nc(-c2ccccc2)cs1 [TJM2010-5, 3-(4-benzylpiperazin-1-yl)-N-(4-phenylthiazol-2-yl) propanamide]
- weight vs control group (GVHD mice; 50 mg/kg/day intragastric since day of irradiation, FIG. 2a-A): higher than that of control group
- GVHD level vs control group (GVHD mice; 50 mg/kg/day intragastric, FIG. 2a-B): significantly lower than that of control group
- survival rate vs control group (GVHD mice; 50 mg/kg/day intragastric, FIG. 2a-C): significantly higher than that of control group
- general performances of mice (GVHD mice; FIG. 2c): close to normal mice
- GVHD reversed (GVHD mice; TJM2010-5 alone or combined with MR1): 70%
- survival rates of the mice after 60 days (GVHD mice; each TJM2010 compound combined with MR1, 50 mg/kg/day intragastric, 8 mice per group): 100%
- proliferation in T cells with increasing TJM2010-5 [1]: reduces
- level of inflammatory factors (IL-1β, TNF-α, IL-6) in heart graft vs control group ([2]; FIG. 9): significantly lower than that of control group
- level of IL-1β in graft vs CMC allogeneic transplantation group ([2]; FIG. 9a): significantly lower than those in CMC allogeneic transplantation group
- level of IL-6 in graft vs CMC allogeneic transplantation group ([2]; FIG. 9c): significantly lower than those in CMC allogeneic transplantation group
- recruitment of bronchialveolar neutrophile granulocyte (C57bl/6 mice; 150 mg/kg/d intraperitoneal, FIG. 10b): reduces significantly
- level of IL-6 in lung tissue (C57bl/6 mice; at 24 h, FIG. 11b): reduces
- total cell numbers in bronchial alveolar vs WT mice (C57bl/6 mice; day 1, 7, 11, FIG. 10a): statistical differences
- MPO factor in lung tissue (C57bl/6 mice; detection on day 7, FIG. 11a): reduced
- death time and final mortality of pyohemia in mice (mice with pyohemia): significantly improve
